In the assay the target is T1, VHL (VCB E3 ligase complex) (Homo sapiens, UniProt P40337).
T1 construct: VCB complex (VHL·EloB·EloC); with Elongin B, Elongin C
The experiment in a line: fluorescence polarization; ternary complex with BCL-xL by native MS. Type of assay: binding. On the technique in general: Fluorescence polarisation rises when a labelled molecule tumbles more slowly, as on binding a larger partner.

SMILES strings stand for the structures.

The term IC50 denotes the concentration at which inhibition is half-maximal. A higher IC50 goes with weaker potency.

T1 sequence (P40337 whole entry): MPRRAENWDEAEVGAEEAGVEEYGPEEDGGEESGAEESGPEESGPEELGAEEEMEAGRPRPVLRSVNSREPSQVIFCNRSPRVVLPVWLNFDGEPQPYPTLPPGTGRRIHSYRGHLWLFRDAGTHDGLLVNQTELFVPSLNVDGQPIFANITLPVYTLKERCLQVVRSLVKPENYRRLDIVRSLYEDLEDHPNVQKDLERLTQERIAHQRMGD
T1 sequence (Q15370 whole entry partner): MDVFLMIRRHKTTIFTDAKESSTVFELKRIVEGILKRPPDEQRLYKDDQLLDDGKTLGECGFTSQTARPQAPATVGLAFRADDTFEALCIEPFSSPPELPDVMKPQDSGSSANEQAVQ
T1 sequence (Q15369 whole entry partner): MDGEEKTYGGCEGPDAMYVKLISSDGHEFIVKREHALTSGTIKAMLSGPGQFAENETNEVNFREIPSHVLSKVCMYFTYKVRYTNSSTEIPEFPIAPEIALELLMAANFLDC

`Cc1ncsc1-c1ccc([C@H](C)NC(=O)[C@@H]2C[C@@H](O)CN2C(=O)[C@@H](NC(=O)CCCCCC(=O)N2CCN(CC[C@H](CSc3ccccc3)Nc3ccc(S(=O)(=O)NC(=O)c4ccc(N5CCN(CC6=C(c7ccc(Cl)cc7)CCC(C)(C)C6)CC5)cc4)cc3S(=O)(=O)C(F)(F)F)CC2)C(C)(C)C)cc1` [DT2216]: half-maximal inhibition (IC50) required 10.6 µM.

Source of the values: paper PMC12917756, “Unveiling BCL-xL-specific PROTAC efficiency and dissociation pathways using native mass spectrometry” (Chemical Science, 2026).
